Consider 10 compounds from ChEMBL document CHEMBL1201862, “PubChem BioAssay data set” (2004).

Molecules are shown by their SMILES.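 Each compound was tested at five concentrations against cells in 96-well plates for 48 hours. At the GI50, growth is halved.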 Active and inactive are the calls of the source. Cut-off read from the data, not from the text of the source: active = GI50 up to about 1.1 µM and inactive = higher.

Some test systems named below: NCI/ADR-RES; OVCAR-3; ACHN; RPMI-8226; NCI-H23; T47D; PC-3; IGROV-1; M14; LOX IMVI; NCI-H460; MDA-MB-231; Hs-578T; CCRF-CEM; SK-MEL-2; SF-295; HCT-116; UACC-257; Malme-3M; HCC 2998.
Experiment in all cases: growth of human tumour cells (NCI), 48 h

As for `COc1nncc2[nH]c(-c3ccccc3)cc12`, the GI50 with NCI/ADR-RES is 76.2 µM (inactive); with OVCAR-3, 83.2 µM (inactive); with ACHN, 54 µM (inactive); with RPMI-8226 it was 46.9 µM (inactive); with NCI-H23, > 100 µM (inactive); with T47D it was 40.9 µM (inactive). The GI50 was 44.7 µM (inactive) in the assay on PC-3; > 100 µM (inactive) in the assay with IGROV-1; 86.7 µM (inactive) in the assay on M14; 65 µM (inactive) with LOX IMVI; 64.6 µM (inactive) with NCI-H460; 49.8 µM (inactive) in the assay with MDA-MB-231. The GI50 in the assay on Hs-578T was 44 µM (inactive); in the assay on CCRF-CEM, 44.9 µM (inactive); in the assay on SK-MEL-2 it was 33.9 µM (inactive); with SF-295, 82.4 µM (inactive); with HCT-116 it was 50.8 µM (inactive); in the assay on UACC-257, 71.1 µM (inactive). Also, the GI50 in the assay with Malme-3M and in the assay with HCC 2998 was > 100 µM (inactive) throughout.

Turning to `COc1ccc(/C=C/C(=O)NCC(NC(=O)/C=C/c2ccc(OC)c(OC)c2)C(=O)O)cc1OC` (stereo not drawn), the GI50 was 0.0169 µM (active) with NCI/ADR-RES; > 100 µM (inactive) in the assay on OVCAR-3; > 100 µM (inactive) in the assay on ACHN; > 100 µM (inactive) in the assay with RPMI-8226; > 100 µM (inactive) in the assay on NCI-H23; > 100 µM (inactive) with T47D. Also, the GI50 is > 100 µM (inactive) with PC-3; < 0.01 µM (active) with IGROV-1; > 100 µM (inactive) in the assay on M14; > 100 µM (inactive) in the assay on LOX IMVI; > 100 µM (inactive) with NCI-H460; > 100 µM (inactive) in the assay on MDA-MB-231. Further, the GI50 in the assay with Hs-578T, in the assay with CCRF-CEM, with SK-MEL-2, in the assay on SF-295, with HCT-116 and in the assay on UACC-257 was > 100 µM (inactive) throughout. Besides, the GI50 in the assay on Malme-3M and in the assay on HCC 2998 was > 100 µM (inactive) in each case.

`Cc1ccc(S(=O)(=O)SC(C)(C)C)cc1`: the GI50 is 32.6 µM (inactive) with NCI/ADR-RES; 20.9 µM (inactive) in the assay with OVCAR-3; 38.5 µM (inactive) with ACHN; 15.3 µM (inactive) in the assay on RPMI-8226; 11.2 µM (inactive) in the assay with NCI-H23; > 100 µM (inactive) with T47D. The GI50 in the assay on PC-3 was > 10 µM (inactive); with IGROV-1 it was 18.9 µM (inactive); in the assay on M14, 31.6 µM (inactive); in the assay on LOX IMVI, 21.9 µM (inactive); in the assay with NCI-H460, > 100 µM (inactive); in the assay with MDA-MB-231, 24.7 µM (inactive). Further, the GI50 with Hs-578T is 34.2 µM (inactive); in the assay with CCRF-CEM, 12.6 µM (inactive); with SK-MEL-2, 33.2 µM (inactive); with SF-295, > 100 µM (inactive); with HCT-116, 17.6 µM (inactive); with UACC-257, 21.6 µM (inactive). For the same compound, the values for the GI50 with Malme-3M and with HCC 2998 were > 44.4 µM (inactive) and > 43.5 µM (inactive), respectively.

Regarding `CCCCCCCCCC[C@H](O)[C@H]1CC[C@H]([C@H]2CC[C@H]([C@H](O)CC[C@H](O)CCCCCCC[C@@H](O)CC3=C[C@H](C)OC3=O)O2)O1`, the GI50 with NCI/ADR-RES is 1.61 µM (inactive); in the assay with OVCAR-3 it was 18.3 µM (inactive); in the assay with ACHN it was 1.6 µM (inactive); in the assay on RPMI-8226, 1.04 µM (active); with NCI-H23, 1.82 µM (inactive); with T47D, 5.25 µM (inactive). Moreover, the GI50 in the assay on PC-3 is 5.7 µM (inactive); with IGROV-1, 15.7 µM (inactive); in the assay on M14 it was 46.9 µM (inactive); in the assay on LOX IMVI, 7.46 µM (inactive); in the assay with NCI-H460, 1.46 µM (inactive); with MDA-MB-231 it was > 10 µM (inactive). The GI50 in the assay on Hs-578T was > 10 µM (inactive); with CCRF-CEM it was 3.6 µM (inactive); in the assay on SK-MEL-2 it was 78 µM (inactive); with SF-295 it was 1.66 µM (inactive); with HCT-116, < 0.01 µM (active); in the assay with UACC-257, 1.08 µM (active). The GI50 with Malme-3M is 25.8 µM (inactive); with HCC 2998, > 100 µM (inactive).

As for `ClC1(c2ccccc2)c2ccc(Br)cc2-c2cc(Br)ccc21`, the GI50 in the assay with NCI/ADR-RES is 18.1 µM (inactive); in the assay on OVCAR-3, 16.9 µM (inactive); in the assay with ACHN, 16.1 µM (inactive); with RPMI-8226, 28.7 µM (inactive); in the assay with NCI-H23, 15 µM (inactive); in the assay with T47D, 19.7 µM (inactive). The GI50 in the assay with PC-3 is 17.4 µM (inactive); with IGROV-1, 16.2 µM (inactive); in the assay on M14 it was 14.2 µM (inactive); with LOX IMVI, 17.8 µM (inactive); in the assay with NCI-H460, 14.3 µM (inactive); in the assay on MDA-MB-231, 16.7 µM (inactive). The GI50 in the assay with Hs-578T is 19.9 µM (inactive); in the assay with CCRF-CEM, 34.6 µM (inactive); in the assay on SK-MEL-2, 17.8 µM (inactive); with SF-295, 17.9 µM (inactive); with HCT-116, 14.9 µM (inactive); in the assay with UACC-257, 18.3 µM (inactive). Moreover, the GI50 in the assay with Malme-3M was 17 µM (inactive); in the assay on HCC 2998, 19.7 µM (inactive).

For the compound `COc1ccc2oc3c(C)cc4c(OC)nnc(OC)c4c3c2c1`, the GI50 was 18.4 µM (inactive) with NCI/ADR-RES; > 100 µM (inactive) with OVCAR-3; 5.05 µM (inactive) in the assay on ACHN; 4.93 µM (inactive) in the assay on RPMI-8226; 17.9 µM (inactive) in the assay on NCI-H23; 29.9 µM (inactive) in the assay on T47D. For the same compound, the GI50 in the assay with PC-3 was 12.8 µM (inactive); with M14 it was 16.5 µM (inactive); with LOX IMVI, 5.55 µM (inactive); in the assay on NCI-H460, 3.79 µM (inactive); with MDA-MB-231, 22.9 µM (inactive); with Hs-578T, 31 µM (inactive). Besides, the GI50 with CCRF-CEM is 5.21 µM (inactive); in the assay with SK-MEL-2, 82.4 µM (inactive); with SF-295, 8.51 µM (inactive); in the assay on HCT-116, 2.17 µM (inactive); in the assay on UACC-257, 42 µM (inactive); with Malme-3M, 9.95 µM (inactive). The GI50 with HCC 2998 is 16.7 µM (inactive).

For `CC(O)[C@@]1(c2ccccc2)CC2(CCN(C)CC2)O[C@H]1C` (stereo partly drawn), the GI50 was > 100 µM (inactive) in the assay with NCI/ADR-RES; > 100 µM (inactive) in the assay with OVCAR-3; > 100 µM (inactive) in the assay on ACHN; > 100 µM (inactive) with RPMI-8226; > 100 µM (inactive) in the assay with NCI-H23; 33.9 µM (inactive) with T47D. Besides, the GI50 in the assay on PC-3, in the assay with IGROV-1, in the assay on M14, in the assay on LOX IMVI, with NCI-H460 and in the assay on MDA-MB-231 was > 100 µM (inactive) in each case. For the same compound, the GI50 was > 100 µM (inactive) in the assay on Hs-578T; 0.465 µM (active) in the assay with CCRF-CEM; > 100 µM (inactive) with SK-MEL-2; > 100 µM (inactive) in the assay on SF-295; > 100 µM (inactive) in the assay with UACC-257; > 100 µM (inactive) with Malme-3M. Also, the GI50 in the assay on HCC 2998 was > 100 µM (inactive).

On to `O=c1c(C(c2ccco2)c2c(O)oc3ccccc3c2=O)c(O)oc2ccccc12`, for which the GI50 is 30.5 µM (inactive) with NCI/ADR-RES; 41.6 µM (inactive) with OVCAR-3; 27.1 µM (inactive) with ACHN; 26.1 µM (inactive) with RPMI-8226; > 100 µM (inactive) in the assay on NCI-H23; 43.3 µM (inactive) in the assay with T47D. In addition, the GI50 in the assay on PC-3 was > 100 µM (inactive); with IGROV-1 it was 17.8 µM (inactive); with LOX IMVI, 28.2 µM (inactive); with NCI-H460 it was > 100 µM (inactive); in the assay with MDA-MB-231, 20 µM (inactive); in the assay on Hs-578T it was 51.1 µM (inactive). Moreover, the GI50 was 26.8 µM (inactive) with CCRF-CEM; 51.6 µM (inactive) in the assay with SK-MEL-2; 78 µM (inactive) with HCT-116; 23.4 µM (inactive) in the assay with UACC-257; 20.5 µM (inactive) in the assay with Malme-3M; 26.5 µM (inactive) in the assay on HCC 2998.

With `N=C(N)NCC[C@H](NC(=O)OCCCCCn1ccc(=O)[nH]c1=O)C(=O)O`, the GI50 with NCI/ADR-RES, in the assay with OVCAR-3, in the assay on ACHN, with RPMI-8226, in the assay on NCI-H23 and in the assay on T47D was > 100 µM (inactive) throughout. For the same compound, the GI50 in the assay with PC-3, in the assay with LOX IMVI, in the assay with NCI-H460, in the assay with MDA-MB-231, with Hs-578T and in the assay on CCRF-CEM was > 100 µM (inactive) in each case. For the same compound, the GI50 in the assay on SK-MEL-2, with SF-295, in the assay on HCT-116, with UACC-257, with Malme-3M and with HCC 2998 was > 100 µM (inactive) in each case.

With `N#C[BH2-][n+]1cn(C2CC(OP(=O)(O)OCC3OC(n4cnc5c(=O)[nH]c(N)nc54)CC3O)C(CO)O2)c2nc(N)[nH]c(=O)c21` (stereo not drawn), the GI50 in the assay on NCI/ADR-RES, with OVCAR-3, in the assay on ACHN, with RPMI-8226, with NCI-H23 and in the assay with T47D was > 100 µM (inactive) each time. Moreover, the GI50 with PC-3 was > 100 µM (inactive); in the assay with IGROV-1 it was > 100 µM (inactive); in the assay on LOX IMVI, 55.5 µM (inactive); with NCI-H460, > 100 µM (inactive); in the assay with MDA-MB-231, > 100 µM (inactive); with Hs-578T it was > 100 µM (inactive). Besides, the GI50 in the assay on CCRF-CEM was 37.8 µM (inactive); in the assay on SK-MEL-2, > 100 µM (inactive); in the assay with SF-295 it was 74.3 µM (inactive); with HCT-116 it was > 100 µM (inactive); in the assay with UACC-257, > 100 µM (inactive); with Malme-3M, 70.5 µM (inactive). For the same compound, the GI50 in the assay with HCC 2998 is > 100 µM (inactive).
